Measurements: patent publication US6706663B2, “Herbicidal 3-heterocyclic substituted benzisothiazole and benzisoxazole compounds” (Wyeth, priority 2000, dated 2004)

Key:
[1] = test system: ABUTH (Abutilon theophrasti); experiment: Postemergence herbicidal evaluation; type: in vivo, Medic.
Method in brief: (§1)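 Seedlings grown about two weeks in flats, sprayed, then kept under standard greenhouse care. Rated visually 4–5 weeks after treatment on a 0–9 scale (stand, vigour, malformation, size, chlorosis, overall appearance) relative to untreated control; repeat tests averaged.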

GALAP (Galium aparine) = experiment: Postemergence herbicidal evaluation; type: in vivo
Method in brief: as §1

[2] = test system: IPOHE (Ipomoea hederacea); experiment: Postemergence herbicidal evaluation; type: in vivo, (L.) Jacq.
Method in brief: as §1

[3] = test system: ECHCG (Echinochloa crus-galli); experiment: Postemergence herbicidal evaluation; type: in vivo, (L.) Beau
Method in brief: as §1

SETVI (Setaria viridis) [4] = experiment: Postemergence herbicidal evaluation; type: in vivo, (L.) Beau
Method in brief: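 Seedlings about two weeks old were sprayed with compound in 50/50 acetone/water plus 0.5% TWEEN 20, at the equivalent of about 0.0040 to 1.000 kg/ha. Plants were kept in a greenhouse and visually rated 0-9 against a control four to five weeks after treatment. Repeat tests were averaged.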

[5] = test system: GLXMAW (Soybean, Williams); experiment: Postemergence herbicidal evaluation; type: in vivo, Glycine max, (L.) Merr. cv Williams
Method in brief: as §1

ORYSAT (Rice, Tebonnet) [6] = experiment: Postemergence herbicidal evaluation; type: in vivo, Oryza sativa, (L.) Tebonnet
Method in brief: as §1

ZEAMX (Corn, Field) = experiment: Postemergence herbicidal evaluation; type: in vivo, Zea mays, L.
Method in brief: as §1

[7] = test system: AMBEL (Ambrosia artemisifolia); experiment: Preemergence herbicidal evaluation; type: in vivo, L.; conditions: preemergence, rated 4-5 weeks after treatment
Method in brief: (§2)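 Applied before emergence as an aqueous acetone spray over seeded soil. Read-out: 0–9 visual rating covering plant stand, vigor, size, chlorosis, malformation and overall appearance compared with control, taken 4–5 weeks after spraying.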

[8] = test system: CASOB (Cassia obtusifolia); experiment: Preemergence herbicidal evaluation; type: in vivo, L.; conditions: preemergence, rated 4-5 weeks after treatment
Method in brief: as §2

[9] = test system: CHEAL (Chenopodium album); experiment: Preemergence herbicidal evaluation; type: in vivo, L.; conditions: preemergence, rated 4-5 weeks after treatment
Method in brief: as §2

[10] = test system: IPOHE (Ipomoea hederacea); experiment: Preemergence herbicidal evaluation; type: in vivo, (L.) Jacq.; conditions: preemergence, rated 4-5 weeks after treatment
[11] = test system: ECHCG (Echinochloa crus-galli); experiment: Preemergence herbicidal evaluation; type: in vivo, (L.) Beau; conditions: preemergence, rated 4-5 weeks after treatment
Method in brief: as §2

SETVI (Setaria viridis) [12] = experiment: Preemergence herbicidal evaluation; type: in vivo, (L.) Beau; conditions: preemergence, rated 4-5 weeks after treatment
Method in brief: as §2

ORYSAT (Rice, Tebonnet) [13] = experiment: Preemergence herbicidal evaluation; type: in vivo, Oryza sativa, (L.) Tebonnet; conditions: preemergence, rated 4-5 weeks after treatment
[14] = test system: ECHORC (Echinochloa oryzoides); experiment: Flooded paddy, preemergence weed control; type: in vivo, Echinochloa oryzoides (Ard.) Fritsch.; conditions: rated 3-4 weeks after treatment, 0-9 rating scale
Method in brief: (§3)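 Under paddy conditions, seeds or vegetative propagules go into the top 0.5 cm of silt loam; the soil is then flooded to 1.5–3 cm and kept so. Treated pots stay in a greenhouse; response is rated 0-9 visually versus control.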

CYPIR (Cyperus iria) = experiment: Flooded paddy, preemergence weed control; type: in vivo; conditions: rated 3-4 weeks after treatment, 0-9 rating scale
Method in brief: as §3

[15] = test system: MOOVA (Monochoria vaginalis); experiment: Flooded paddy, preemergence weed control; type: in vivo, Presl.; conditions: rated 3-4 weeks after treatment, 0-9 rating scale
Method in brief: as §3

[16] = test system: SAGPY (Sagittaria pygmaea); experiment: Flooded paddy, preemergence weed control; type: in vivo, L.; conditions: rated 3-4 weeks after treatment, 0-9 rating scale
Method in brief: as §3

ORYSAT (Rice, Tebonnet) [17] = experiment: Flooded paddy, post-transplant rice tolerance; type: in vivo, Oryza sativa, (L.) Tebonnet; conditions: flooded paddy, post-transplant rice, rated 3-4 weeks after treatment, 0-9 rating scale
Method in brief: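 Seedlings aged ten days are transplanted in pairs into undrained pots of silt loam, which are then flooded to a depth of 1.5 to 3 cm. After herbicide application the pots are kept in a greenhouse with the flood maintained. Plants are rated 0-9 by visual comparison with controls.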

In the case of `Cc1cscc1-c1nsc2ccc(-n3c(=O)cc(C(F)(F)F)n(C)c3=O)cc12` [Compound 26, 1-methyl-3-[3-(4-methyl-3-thienyl)-1,2-benzisothiazol-5-yl]-6-(trifluoromethyl)uracil], the “Postemergence herbicidal rating, ABUTH” value ([1]; rate 0.0320 kg/ha) is reported as 9.0, the “Postemergence herbicidal rating, ABUTH” value ([1]; rate 0.0620 kg/ha) is reported as 9.0 and the “Postemergence herbicidal rating, GALAP” value (GALAP (Galium aparine); rate 0.0320 kg/ha) is reported as 5.0. The “Postemergence herbicidal rating, GALAP” value (GALAP (Galium aparine); rate 0.0620 kg/ha) was 6.0, the “Postemergence herbicidal rating, IPOHE” value ([2]; rate 0.0320 kg/ha) was 9.0 and the “Postemergence herbicidal rating, IPOHE” value ([2]; rate 0.0620 kg/ha) was 9.0. For the same compound, the “Postemergence herbicidal rating, ECHCG” value ([3]; rate 0.0320 kg/ha) was 3.0, the “Postemergence herbicidal rating, ECHCG” value ([3]; rate 0.0620 kg/ha) was 3.0 and the “Postemergence herbicidal rating, SETVI” value (SETVI (Setaria viridis) [4]; rate 0.0320 kg/ha) was 7.0. The “Postemergence herbicidal rating, SETVI” value (SETVI (Setaria viridis) [4]; rate 0.0620 kg/ha) was 9.0, the “Postemergence herbicidal rating, GLXMAW” value ([5]; rate 0.0320 kg/ha) was 6.0 and the “Postemergence herbicidal rating, GLXMAW” value ([5]; rate 0.0620 kg/ha) was 6.5. For the same compound, the “Postemergence herbicidal rating, ORYSAT” value (ORYSAT (Rice, Tebonnet) [6]; rate 0.0320 kg/ha) was 3.5, the “Postemergence herbicidal rating, ORYSAT” value (ORYSAT (Rice, Tebonnet) [6]; rate 0.0620 kg/ha) was 4.5 and the “Postemergence herbicidal rating, ZEAMX” value (ZEAMX (Corn, Field); rate 0.0320 kg/ha) was 5.0. The “Postemergence herbicidal rating, ZEAMX” value (ZEAMX (Corn, Field); rate 0.0620 kg/ha) was 5.5, the “AMBEL preemergence herbicidal rating” value ([7]; Rate 0.0620 kg/ha) was 3.0 and the “AMBEL preemergence herbicidal rating” value ([7]; Rate 0.1250 kg/ha) was 6.0. For the same compound, the “AMBEL preemergence herbicidal rating” value ([7]; Rate 0.2500 kg/ha) was 8.5, the “CASOB preemergence herbicidal rating” value ([8]; Rate 0.0620 kg/ha) was 1.0 and the “CASOB preemergence herbicidal rating” value ([8]; Rate 0.1250 kg/ha) was 3.5. The “CASOB preemergence herbicidal rating” value ([8]; Rate 0.2500 kg/ha) was 6.0, the “CHEAL preemergence herbicidal rating” value ([9]; Rate 0.0620 kg/ha) was 9.0 and the “CHEAL preemergence herbicidal rating” value ([9]; Rate 0.1250 kg/ha) was 9.0. The “CHEAL preemergence herbicidal rating” value ([9]; Rate 0.2500 kg/ha) was 9.0, the “IPOHE preemergence herbicidal rating” value ([10]; Rate 0.0620 kg/ha) was 1.5 and the “IPOHE preemergence herbicidal rating” value ([10]; Rate 0.1250 kg/ha) was 4.0. The “IPOHE preemergence herbicidal rating” value ([10]; Rate 0.2500 kg/ha) was 6.0, the “ECHCG preemergence herbicidal rating” value ([11]; Rate 0.0620 kg/ha) was 6.5 and the “ECHCG preemergence herbicidal rating” value ([11]; Rate 0.1250 kg/ha) was 9.0. The “ECHCG preemergence herbicidal rating” value ([11]; Rate 0.2500 kg/ha) was 9.0, the “SETVI preemergence herbicidal rating” value (SETVI (Setaria viridis) [12]; Rate 0.0620 kg/ha) was 9.0 and the “SETVI preemergence herbicidal rating” value (SETVI (Setaria viridis) [12]; Rate 0.1250 kg/ha) was 9.0. For the same compound, the “SETVI preemergence herbicidal rating” value (SETVI (Setaria viridis) [12]; Rate 0.2500 kg/ha) was 9.0, the “ORYSAT preemergence herbicidal rating” value (ORYSAT (Rice, Tebonnet) [13]; Rate 0.0620 kg/ha) was 2.0 and the “ORYSAT preemergence herbicidal rating” value (ORYSAT (Rice, Tebonnet) [13]; Rate 0.1250 kg/ha) was 3.0. For the same compound, the “ORYSAT preemergence herbicidal rating” value (ORYSAT (Rice, Tebonnet) [13]; Rate 0.2500 kg/ha) was 5.5, the “herbicidal rating, ECHORC” value ([14]; rate 0.0080 kg/ha) was 8.0 and the “herbicidal rating, ECHORC” value ([14]; rate 0.0320 kg/ha) was 9.0. The “herbicidal rating, ECHORC” value ([14]; rate 0.1250 kg/ha) was 9.0, the “herbicidal rating, CYPIR” value (CYPIR (Cyperus iria); rate 0.0080 kg/ha) was 8.5 and the “herbicidal rating, CYPIR” value (CYPIR (Cyperus iria); rate 0.0320 kg/ha) was 8.3. For the same compound, the “herbicidal rating, CYPIR” value (CYPIR (Cyperus iria); rate 0.1250 kg/ha) was 9.0, the “herbicidal rating, MOOVA” value ([15]; rate 0.0080 kg/ha) was 9.0 and the “herbicidal rating, MOOVA” value ([15]; rate 0.0320 kg/ha) was 9.0. The “herbicidal rating, MOOVA” value ([15]; rate 0.1250 kg/ha) was 9.0, the “herbicidal rating, SAGPY” value ([16]; rate 0.0080 kg/ha) was 1.5 and the “herbicidal rating, SAGPY” value ([16]; rate 0.0320 kg/ha) was 5.3. The “herbicidal rating, SAGPY” value ([16]; rate 0.1250 kg/ha) was 8.0, the “herbicidal rating, ORYSAT (rice tolerance)” value (ORYSAT (Rice, Tebonnet) [17]; rate 0.0080 kg/ha) was 0.0 and the “herbicidal rating, ORYSAT (rice tolerance)” value (ORYSAT (Rice, Tebonnet) [17]; rate 0.0320 kg/ha) was 2.0. For the same compound, the “herbicidal rating, ORYSAT (rice tolerance)” value (ORYSAT (Rice, Tebonnet) [17]; rate 0.1250 kg/ha) was 4.3.
